# Measurements published in patent publication US20050009929A1, “Inhibition of the asexual reproduction of fungi” (priority 2001, published 2005).
# System: Aspergillus niger
# Assay: Effect of farnesol on the sporulation of Aspergillus niger on malt extract agar
# Format: cell-based
# Conditions: 5 days at 25° C.; for Sporulation [%]: evaluated by appearance
# Procedure: Quantities of 100 μl of a cell suspension of Aspergillus niger (1.5·10^7 cells/ml) were plated out onto malt agar extract (Merck) to which farnesol had been added in various quantities of 0; 25; 62.5; 125; 250 and 500 μM.
smiles,measurement,setting,value
CC(C)=CCCC(C)=CCCC(C)=CCO [farnesol],Sporulation [%],farnesol 25 μM in agar,90%
same,Sporulation [%],farnesol 62.5 μM in agar,75%
same,Sporulation [%],farnesol 125 μM in agar,50%
same,Sporulation [%],farnesol 250 μM in agar,10%
same,inhibition of sporulation (in words),farnesol 500 μM in agar,completely suppressed
same,Sporulation [%],farnesol 500 μM in agar,0%
same,inhibition of growth,farnesol 25 to 500 μM in agar,None of the farnesol concentrations used inhibited growth
